Reference: ChEMBL document CHEMBL4387741, “Optimization of novel reversible Bruton's tyrosine kinase inhibitors identified using Tethering-fragment-based screens” (Bioorg Med Chem, 2019)

Columns and labels:
[1] = biological target: Mitogen-activated protein kinase 7 (Homo sapiens) (UniProt Q13164); experiment: Inhibition of wild-type human partial length ERK5 (M1 to A409 residues) expressed in bacterial expression system at 1 uM by Kinomescan method relative to control
[2] = biological target: MAP/microtubule affinity-regulating kinase 3 (Homo sapiens) (UniProt P27448); experiment: Inhibition of wild-type human full length MARK3 (M1 to L729 residues) expressed in bacterial expression system at 1 uM by Kinomescan method relative to control
[3] = biological target: Mitogen-activated protein kinase kinase kinase 7 (Homo sapiens) (UniProt O43318); experiment: Inhibition of wild-type human partial length TAK1 (M1 to Q303 residues) expressed in mammalian expression system at 1 uM by Kinomescan method relative to control
[4] = biological target: Phosphorylase b kinase gamma catalytic chain, skeletal muscle/heart isoform (Homo sapiens) (UniProt Q16816); experiment: Inhibition of wild-type human full length PHKG1 (M1 to Y387 residues) expressed in bacterial expression system at 1 uM by Kinomescan method relative to control
[5] = biological target: Receptor-interacting serine/threonine-protein kinase 2 (Homo sapiens) (UniProt O43353); experiment: Inhibition of wild-type human partial length RIPK2 (M1 to K310 residues) expressed in bacterial expression system at 1 uM by Kinomescan method relative to control
Sequence of Receptor-interacting serine/threonine-protein kinase 2 (Homo sapiens) (O43353 whole entry, the tested form may be a part): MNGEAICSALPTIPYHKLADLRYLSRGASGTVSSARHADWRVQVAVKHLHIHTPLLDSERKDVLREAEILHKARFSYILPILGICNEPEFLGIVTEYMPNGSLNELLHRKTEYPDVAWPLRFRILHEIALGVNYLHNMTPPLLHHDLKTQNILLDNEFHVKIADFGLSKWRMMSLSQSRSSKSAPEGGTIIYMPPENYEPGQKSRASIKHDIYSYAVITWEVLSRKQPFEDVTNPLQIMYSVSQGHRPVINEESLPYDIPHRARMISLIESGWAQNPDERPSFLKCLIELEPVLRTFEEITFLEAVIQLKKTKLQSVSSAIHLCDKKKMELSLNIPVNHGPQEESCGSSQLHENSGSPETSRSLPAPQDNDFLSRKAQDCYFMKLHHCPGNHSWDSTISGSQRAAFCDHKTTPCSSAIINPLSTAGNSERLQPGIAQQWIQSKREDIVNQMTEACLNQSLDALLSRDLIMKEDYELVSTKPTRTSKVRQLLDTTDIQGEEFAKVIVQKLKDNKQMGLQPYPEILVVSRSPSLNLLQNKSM

[6] = biological target: 5'-AMP-activated protein kinase catalytic subunit alpha-1 (Homo sapiens) (UniProt Q13131); experiment: Inhibition of wild-type human partial length AMPK alpha1 (M1 to E306 residues) expressed in bacterial expression system at 1 uM by Kinomescan method relative to control
Sequence of 5'-AMP-activated protein kinase catalytic subunit alpha-1 (Homo sapiens) (Q13131 whole entry, looked up, the tested form may be a part): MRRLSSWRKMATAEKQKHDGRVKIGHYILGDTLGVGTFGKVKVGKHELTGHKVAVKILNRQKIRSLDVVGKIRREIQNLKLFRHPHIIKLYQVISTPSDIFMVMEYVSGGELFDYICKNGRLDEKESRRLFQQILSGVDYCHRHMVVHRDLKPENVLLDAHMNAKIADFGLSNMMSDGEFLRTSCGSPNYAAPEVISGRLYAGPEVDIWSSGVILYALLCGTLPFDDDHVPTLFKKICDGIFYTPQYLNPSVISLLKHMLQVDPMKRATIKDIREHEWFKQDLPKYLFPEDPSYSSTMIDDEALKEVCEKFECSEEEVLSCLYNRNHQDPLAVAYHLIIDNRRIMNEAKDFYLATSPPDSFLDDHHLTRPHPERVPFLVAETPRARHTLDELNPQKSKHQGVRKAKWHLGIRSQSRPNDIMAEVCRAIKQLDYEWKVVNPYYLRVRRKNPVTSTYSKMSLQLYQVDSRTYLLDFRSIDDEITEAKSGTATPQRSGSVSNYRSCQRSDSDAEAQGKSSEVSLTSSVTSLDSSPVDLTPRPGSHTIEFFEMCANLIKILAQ

[7] = system: Receptor-type tyrosine-protein kinase FLT3 (Homo sapiens), P36888 [N841I]; experiment: Inhibition of human partial length FLT3 N841I mutant (V592 to Y969 residues) expressed in bacterial expression system at 1 uM by Kinomescan method relative to control
[8] = Protein binding in rat plasma assessed as unbound fraction at 2 uM by rapid equilibrium dialysis method; assay type: ADME, cell-free
[9] = biological target: SNF-related serine/threonine-protein kinase (Homo sapiens) (UniProt Q9NRH2); experiment: Inhibition of wild-type human partial length SNRK (M1 to E339 residues) expressed in mammalian expression system at 1 uM by Kinomescan method relative to control
Sequence of SNF-related serine/threonine-protein kinase (Homo sapiens) (Q9NRH2 whole entry, the tested form may be a part): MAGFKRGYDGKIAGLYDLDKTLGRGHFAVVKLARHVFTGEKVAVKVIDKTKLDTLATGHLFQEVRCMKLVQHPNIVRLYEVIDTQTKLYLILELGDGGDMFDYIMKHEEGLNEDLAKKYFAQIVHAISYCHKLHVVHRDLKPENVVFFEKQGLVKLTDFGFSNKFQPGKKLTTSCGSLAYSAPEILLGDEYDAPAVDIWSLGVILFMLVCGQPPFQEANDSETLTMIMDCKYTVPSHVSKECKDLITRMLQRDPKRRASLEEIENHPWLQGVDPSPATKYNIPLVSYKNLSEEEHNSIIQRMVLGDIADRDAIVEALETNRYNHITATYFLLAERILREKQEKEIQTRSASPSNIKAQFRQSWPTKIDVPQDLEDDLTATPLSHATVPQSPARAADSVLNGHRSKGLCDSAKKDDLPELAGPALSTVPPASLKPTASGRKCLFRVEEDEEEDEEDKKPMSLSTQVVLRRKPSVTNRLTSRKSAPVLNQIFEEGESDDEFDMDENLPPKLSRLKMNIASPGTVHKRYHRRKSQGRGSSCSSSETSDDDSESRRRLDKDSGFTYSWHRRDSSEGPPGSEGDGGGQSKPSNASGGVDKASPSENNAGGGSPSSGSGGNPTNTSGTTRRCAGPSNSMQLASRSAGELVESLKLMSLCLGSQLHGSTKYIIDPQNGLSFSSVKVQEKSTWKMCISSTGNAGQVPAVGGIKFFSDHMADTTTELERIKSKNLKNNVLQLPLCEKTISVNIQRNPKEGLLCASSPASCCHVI

[10] = biological target: Tyrosine-protein kinase Srms (Homo sapiens) (UniProt Q9H3Y6); experiment: Inhibition of wild-type human partial length SRMS (L208 to P488 residues) expressed in mammalian expression system at 1 uM by Kinomescan method relative to control
[11] = system: Proto-oncogene tyrosine-protein kinase receptor Ret (Homo sapiens), P07949 [V804M]; experiment: Inhibition of human partial length RET V804M mutant (E713 to D1014 residues) expressed in bacterial expression system at 1 uM by Kinomescan method relative to control
[12] = biological target: Casein kinase I isoform delta (Homo sapiens) (UniProt P48730); experiment: Inhibition of wild-type human full length CSNK1D (M1 to K409 residues) expressed in bacterial expression system at 10 uM by Kinomescan method relative to control
[13] = biological target: Tyrosine-protein kinase Lck (Homo sapiens) (UniProt P06239); experiment: Inhibition of wild-type human partial length LCK (R207 to P509 residues) expressed in bacterial expression system at 10 uM by Kinomescan method relative to control
[14] = biological target: Dual specificity mitogen-activated protein kinase kinase 3 (Homo sapiens) (UniProt P46734); experiment: Inhibition of wild-type human full length MEK3 (M1 to S318 residues) expressed in mammalian expression system at 10 uM by Kinomescan method relative to control
[15] = biological target: STE20/SPS1-related proline-alanine-rich protein kinase (Homo sapiens) (UniProt Q9UEW8); experiment: Inhibition of wild-type human partial length STK39 (P43 to I357 residues) expressed in mammalian expression system at 10 uM by Kinomescan method relative to control
[16] = biological target: Serine/threonine-protein kinase Nek2 (Homo sapiens) (UniProt P51955); experiment: Inhibition of wild-type human partial length NEK2 (M1 to K309 residues) expressed in bacterial expression system at 10 uM by Kinomescan method relative to control
[17] = biological target: Transient receptor potential cation channel subfamily M member 6 (Homo sapiens) (UniProt Q9BX84); experiment: Inhibition of wild-type human partial length TRPM6 (Q1723 to I1998 residues) expressed in mammalian expression system at 10 uM by Kinomescan method relative to control
[18] = biological target: Atypical kinase COQ8A, mitochondrial (Homo sapiens) (UniProt Q8NI60); experiment: Inhibition of wild-type human […] ADCK3 (M280 to Q647 residues) expressed in bacterial expression system at 10 uM by Kinomescan method relative to control
Sequence of Atypical kinase COQ8A, mitochondrial (Homo sapiens) (Q8NI60 163-647 limits assumed): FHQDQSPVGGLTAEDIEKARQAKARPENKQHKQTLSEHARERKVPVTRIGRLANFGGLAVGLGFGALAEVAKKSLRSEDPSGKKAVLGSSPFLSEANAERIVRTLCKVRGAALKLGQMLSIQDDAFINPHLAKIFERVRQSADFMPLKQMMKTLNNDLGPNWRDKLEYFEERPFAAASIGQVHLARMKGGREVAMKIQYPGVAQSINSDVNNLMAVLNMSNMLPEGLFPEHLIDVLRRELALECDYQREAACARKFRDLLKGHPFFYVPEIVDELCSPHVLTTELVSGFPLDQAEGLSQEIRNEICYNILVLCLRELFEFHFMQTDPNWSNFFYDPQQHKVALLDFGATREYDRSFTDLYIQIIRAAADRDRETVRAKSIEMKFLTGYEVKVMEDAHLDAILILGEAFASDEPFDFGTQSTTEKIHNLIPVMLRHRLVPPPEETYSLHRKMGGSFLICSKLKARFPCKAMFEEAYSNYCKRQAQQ

[19] = biological target: Serine/threonine-protein kinase LATS2 (Homo sapiens) (UniProt Q9NRM7); experiment: Inhibition of wild-type human partial length LATS2 (Q641 to V1088 residues) expressed in mammalian expression system at 10 uM by Kinomescan method relative to control
[20] = biological target: 5'-AMP-activated protein kinase catalytic subunit alpha-1 (Homo sapiens) (UniProt Q13131); experiment: Inhibition of wild-type human partial length AMPK alpha1 (M1 to E306 residues) expressed in bacterial expression system at 10 uM by Kinomescan method relative to control
[21] = biological target: Serine/threonine-protein kinase WNK4 (Homo sapiens) (UniProt Q96J92); experiment: Inhibition of wild-type human partial length WNK4 (A31 to D461 residues) expressed in mammalian expression system at 10 uM by Kinomescan method relative to control
Sequence of Serine/threonine-protein kinase WNK4 (Homo sapiens) (Q96J92 whole entry, the tested form may be a part): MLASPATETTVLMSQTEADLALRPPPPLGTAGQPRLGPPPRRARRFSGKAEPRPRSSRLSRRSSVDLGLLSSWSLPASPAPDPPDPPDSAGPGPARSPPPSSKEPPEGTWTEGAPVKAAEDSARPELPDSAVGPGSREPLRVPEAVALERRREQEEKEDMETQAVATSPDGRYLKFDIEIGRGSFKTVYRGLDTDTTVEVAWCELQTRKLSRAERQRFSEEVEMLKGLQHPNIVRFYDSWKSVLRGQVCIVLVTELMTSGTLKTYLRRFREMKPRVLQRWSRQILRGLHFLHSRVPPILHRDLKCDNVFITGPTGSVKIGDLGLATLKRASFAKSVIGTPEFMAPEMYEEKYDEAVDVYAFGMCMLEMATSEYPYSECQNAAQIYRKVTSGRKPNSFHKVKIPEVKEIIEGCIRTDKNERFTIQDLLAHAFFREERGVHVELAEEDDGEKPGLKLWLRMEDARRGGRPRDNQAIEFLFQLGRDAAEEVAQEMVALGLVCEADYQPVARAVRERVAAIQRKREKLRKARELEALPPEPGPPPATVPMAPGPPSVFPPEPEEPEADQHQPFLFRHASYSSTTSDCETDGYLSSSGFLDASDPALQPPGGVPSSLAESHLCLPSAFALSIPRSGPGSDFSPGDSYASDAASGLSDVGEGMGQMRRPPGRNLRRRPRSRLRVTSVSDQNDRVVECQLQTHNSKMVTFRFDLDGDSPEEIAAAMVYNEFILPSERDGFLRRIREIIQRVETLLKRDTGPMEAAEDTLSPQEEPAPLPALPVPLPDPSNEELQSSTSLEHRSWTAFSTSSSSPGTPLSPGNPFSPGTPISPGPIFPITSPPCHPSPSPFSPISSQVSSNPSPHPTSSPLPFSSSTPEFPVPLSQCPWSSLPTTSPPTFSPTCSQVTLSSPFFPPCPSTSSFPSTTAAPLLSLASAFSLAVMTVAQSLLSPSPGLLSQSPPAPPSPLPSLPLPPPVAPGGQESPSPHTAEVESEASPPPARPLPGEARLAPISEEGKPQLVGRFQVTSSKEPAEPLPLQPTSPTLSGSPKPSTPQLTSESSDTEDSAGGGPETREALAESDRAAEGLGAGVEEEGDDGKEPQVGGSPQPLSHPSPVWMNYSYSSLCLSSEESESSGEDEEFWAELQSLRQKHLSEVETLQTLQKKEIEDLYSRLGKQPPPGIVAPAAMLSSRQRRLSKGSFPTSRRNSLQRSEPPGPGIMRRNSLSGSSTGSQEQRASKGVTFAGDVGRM

[22] = biological target: G protein-coupled receptor kinase 3 (Homo sapiens) (UniProt P35626); experiment: Inhibition of wild-type human full length GRK3 (M1 to L688 residues) expressed in mammalian expression system at 10 uM by Kinomescan method relative to control
[23] = system: Mast/stem cell growth factor receptor Kit (Homo sapiens), P10721 [D816H]; experiment: Inhibition of human partial length KIT D816H mutant (I571 to D952 residues) expressed in mammalian expression system at 10 uM by Kinomescan method relative to control
[24] = biological target: Mitogen-activated protein kinase 4 (Homo sapiens) (UniProt P31152); experiment: Inhibition of wild-type human partial length ERK4 (M1 to L365 residues) expressed in bacterial expression system at 10 uM by Kinomescan method relative to control
[25] = biological target: Homeodomain-interacting protein kinase 2 (Homo sapiens) (UniProt Q9H2X6); experiment: Inhibition of wild-type human partial length HIPK2 (M153 to S564 residues) expressed in mammalian expression system at 10 uM by Kinomescan method relative to control
[26] = biological target: Calcium/calmodulin-dependent protein kinase type IV (Homo sapiens) (UniProt Q16566); experiment: Inhibition of wild-type human partial length CAMK4 (A22 to A322 residues) expressed in bacterial expression system at 10 uM by Kinomescan method relative to control
Sequence of Calcium/calmodulin-dependent protein kinase type IV (Homo sapiens) (Q16566 whole entry, the tested form may be a part): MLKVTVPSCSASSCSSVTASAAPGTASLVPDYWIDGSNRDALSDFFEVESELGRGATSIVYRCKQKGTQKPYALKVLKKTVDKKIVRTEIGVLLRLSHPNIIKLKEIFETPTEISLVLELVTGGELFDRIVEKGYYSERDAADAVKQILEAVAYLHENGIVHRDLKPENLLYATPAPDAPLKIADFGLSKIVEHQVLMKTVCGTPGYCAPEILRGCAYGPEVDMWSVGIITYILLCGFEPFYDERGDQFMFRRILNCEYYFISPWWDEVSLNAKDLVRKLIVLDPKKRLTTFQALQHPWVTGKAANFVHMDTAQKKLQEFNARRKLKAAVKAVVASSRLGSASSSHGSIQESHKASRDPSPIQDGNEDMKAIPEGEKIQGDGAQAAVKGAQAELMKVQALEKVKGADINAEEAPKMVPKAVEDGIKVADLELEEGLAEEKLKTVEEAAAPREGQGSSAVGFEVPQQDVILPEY

[27] = system: Mast/stem cell growth factor receptor Kit (Homo sapiens), P10721 [D816V]; experiment: Inhibition of human partial length KIT D816V mutant (I571 to D952 residues) expressed in bacterial expression system at 10 uM by Kinomescan method relative to control
Sequence of Mast/stem cell growth factor receptor Kit (Homo sapiens), P10721 [D816V] (P10721 whole entry D816V, the tested form may be a part): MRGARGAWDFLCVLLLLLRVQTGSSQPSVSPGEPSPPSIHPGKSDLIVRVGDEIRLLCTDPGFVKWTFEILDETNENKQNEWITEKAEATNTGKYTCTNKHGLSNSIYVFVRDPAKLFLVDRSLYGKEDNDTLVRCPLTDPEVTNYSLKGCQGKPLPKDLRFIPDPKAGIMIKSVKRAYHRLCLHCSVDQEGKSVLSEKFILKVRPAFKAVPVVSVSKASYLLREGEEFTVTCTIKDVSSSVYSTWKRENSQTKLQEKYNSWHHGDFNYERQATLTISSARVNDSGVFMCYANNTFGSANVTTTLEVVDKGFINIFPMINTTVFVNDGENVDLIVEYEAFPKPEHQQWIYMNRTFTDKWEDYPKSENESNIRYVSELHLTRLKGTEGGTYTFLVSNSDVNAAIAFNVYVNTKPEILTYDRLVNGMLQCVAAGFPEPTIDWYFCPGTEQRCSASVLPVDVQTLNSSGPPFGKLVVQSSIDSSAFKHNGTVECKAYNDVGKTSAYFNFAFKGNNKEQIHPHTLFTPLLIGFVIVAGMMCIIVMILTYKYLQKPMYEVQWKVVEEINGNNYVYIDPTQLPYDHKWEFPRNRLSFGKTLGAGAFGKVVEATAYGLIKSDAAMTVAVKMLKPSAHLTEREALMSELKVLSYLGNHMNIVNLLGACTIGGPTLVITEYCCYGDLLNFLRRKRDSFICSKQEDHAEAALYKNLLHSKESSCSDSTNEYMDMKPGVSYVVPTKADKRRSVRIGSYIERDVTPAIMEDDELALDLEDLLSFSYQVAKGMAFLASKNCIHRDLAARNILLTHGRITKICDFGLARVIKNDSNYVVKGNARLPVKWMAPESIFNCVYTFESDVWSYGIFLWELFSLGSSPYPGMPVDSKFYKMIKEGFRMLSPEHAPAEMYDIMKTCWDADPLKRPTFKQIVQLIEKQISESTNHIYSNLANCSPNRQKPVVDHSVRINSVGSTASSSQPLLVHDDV

O=C(Nc1cccc([C@@H]2CN(c3ncnc4[nH]ccc34)CCN2CCO)c1)Nc1c(F)cccc1N1CCCC1
inhibition [1]: 100% | inhibition [2]: 100% | inhibition [3]: 97% | inhibition [4]: 98% | inhibition [5]: 100% | inhibition [6]: 61% | inhibition [7]: 28% | Fu [8]: 0.13% | inhibition [9]: 88% | inhibition [10]: 76% | inhibition [11]: 0.95%

O=C(Nc1cccc([C@H]2CCCN(c3ncnc4[nH]ccc34)C2)c1)Nc1ccccc1N1CCCC1
inhibition [12]: 100% | inhibition [13]: 48% | inhibition [14]: 54% | inhibition [15]: 75% | inhibition [16]: 94% | inhibition [17]: 69% | inhibition [18]: 100% | inhibition [19]: 14% | inhibition [20]: 6.6% | inhibition [21]: 87% | inhibition [22]: 71% | inhibition [23]: 4.2% | inhibition [24]: 100% | inhibition [25]: 64% | inhibition [26]: 100% | inhibition [27]: 0.9%
